{
  "source": "patent US5427766A",
  "about": "“Radiolabeled steroids for use in radiochemical-guided surgery” (priority 1993, dated 1995)",
  "key": {"[1]": {"assay": "In vivo localization (biodistribution) in athymic female nude mice bearing subcutaneous MCF-7 tumor xenografts", "parameters": "species or system athymic female NCR-Nu Mice", "settings": "mouse, sc, tail vein, subcutaneous MCF-7, mean, n = 5; for tissue uptake: 10-12 hours", "description": "(§1) In vivo localization of 11β-ethyl-17α-(Z)-[^125 I](iodovinyl)estra-3,17β-diol (5) and a control compound 16α-[^125 I]iodovinyl-3,17β-estradiol (commercially available from DuPont New England Nuclear, MA) was determined in athymic female NCR-Nu Mice (purchased from Simonsen Laboratories, Gilroy, Calif.) bearing subcutaneous MCF-7(ER+) breast tumor xenografts. Prior to injection of the compounds, the mice were each implanted with fragments of MCF-7 breast tumor (approximately 2 cubic millimeters) in the subcutis of the left flank. At approximately the same time, a 1.7 mg estradiol pellet (Innovative Research of America, Toledo, Ohio) was implanted in the scapular region. The tumors were allowed to grow until they reached between 50 and 200 mg by visual inspection (approximately four to five weeks) prior to injection of the test compounds. One day prior to injection of the test compounds, the estradiol pellet was removed.\n(§2) The mice were each injected via tail vein with between 3 (1.1×10^5 Bq) and 6 μCi ([…]) ^125 I in approximately 50 μL of phosphate buffered saline. The mice were sacrificed at various time intervals. After exsanguination, the selected organ/tissue were excised, weighed and radioactivity measured in a gamma counter. The counts per minute (cpm) of 125I in each tissue was determined and expressed as cpm per gram of tissue per injected dose multiplied by 100 (percent injected dose/gram)."}, "[2]": {"assay": "In vivo localization (biodistribution) in athymic female nude mice bearing intraperitoneal MCF-7 tumors", "parameters": "species or system athymic female NCR-Nu Mice", "settings": "mouse, in vivo, ip; for tissue uptake: 10-12 hours", "description": "as §1, §2\nThe procedure of Example 3 was followed except each mouse was inoculated intraperitoneally with MCF-7 breast carcinoma cell line (7.5×10^6 cell/50 μL) rather than implanted subcutaneously with MCF-7 breast tumor. One day prior to this procedure, a 1.7 mg estradiol pellet was implanted subcutaneously in the scapular region. The tumor cells were allowed to form solid tumor nodules for 4 to 6 weeks prior to injection of the test compounds."}, "[3]": {"settings": "mcf-7 tumor, Tumor, read-out: Percent Injected Dose/Gram, tumor"}, "[4]": {"settings": "Blood, read-out: Percent Injected Dose/Gram, blood"}, "[5]": {"settings": "Fat, read-out: Percent Injected Dose/Gram, fat"}, "[6]": {"settings": "Kidney, read-out: Percent Injected Dose/Gram, kidney"}, "[7]": {"settings": "Liver, read-out: Percent Injected Dose/Gram, liver"}, "[8]": {"settings": "Muscle, read-out: Percent Injected Dose/Gram, muscle"}, "[9]": {"settings": "Spleen, read-out: Percent Injected Dose/Gram, spleen"}, "[10]": {"settings": "uterus, Uteri, read-out: Percent Injected Dose/Gram, uteri"}, "[11]": {"settings": "Percent Injected Dose/Gram, kidney"}, "[12]": {"settings": "Percent Injected Dose/Gram, liver"}, "[13]": {"settings": "Percent Injected Dose/Gram, muscle"}, "[14]": {"settings": "Percent Injected Dose/Gram, spleen"}, "[15]": {"settings": "Percent Injected Dose/Gram, tumor"}},
  "data": [
    {"smiles": "CC[C@H]1C[C@@]2(C)[C@@H](CC[C@@]2(O)/C=C\\[125I])[C@@H]2CCc3cc(O)ccc3[C@@H]12", "note": "[Compound 5, 11β-ethyl-17α-(Z)-[^125 I](iodovinyl)estra-3,17β-diol]", "values": [
      {"measurement": "tissue uptake", "setting": "[1]; [3]", "result": 0.83, "unit": "%ID/g"},
      {"measurement": "tissue uptake at 2 h", "setting": "[1]; [3]", "result": 1.15, "unit": "%ID/g"},
      {"measurement": "tissue uptake at 6 h", "setting": "[1]; [3]", "result": 1.1, "unit": "%ID/g"},
      {"measurement": "tissue uptake at 24 h", "setting": "[1]; [3]", "result": 0.55, "unit": "%ID/g"},
      {"measurement": "tissue uptake at 48 h", "setting": "[1]; [3]", "result": 0.36, "unit": "%ID/g"},
      {"measurement": "tissue uptake", "setting": "[1]; [4]", "result": 0.37, "unit": "%ID/g"},
      {"measurement": "tissue uptake at 2 h", "setting": "[1]; [4]", "result": 1.11, "unit": "%ID/g"},
      {"measurement": "tissue uptake at 6 h", "setting": "[1]; [4]", "result": 1.06, "unit": "%ID/g"},
      {"measurement": "tissue uptake at 24 h", "setting": "[1]; [4]", "result": 0.09, "unit": "%ID/g"},
      {"measurement": "tissue uptake at 48 h", "setting": "[1]; [4]", "result": 0.03, "unit": "%ID/g"},
      {"measurement": "tissue uptake", "setting": "[1]; [5]", "result": 0.82, "unit": "%ID/g"},
      {"measurement": "tissue uptake at 2 h", "setting": "[1]; [5]", "result": 2.18, "unit": "%ID/g"},
      {"measurement": "tissue uptake at 6 h", "setting": "[1]; [5]", "result": 1.72, "unit": "%ID/g"},
      {"measurement": "tissue uptake at 24 h", "setting": "[1]; [5]", "result": 0.14, "unit": "%ID/g"},
      {"measurement": "tissue uptake", "setting": "[1]; [6]", "result": 0.45, "unit": "%ID/g"},
      {"measurement": "tissue uptake at 2 h", "setting": "[1]; [6]", "result": 1.24, "unit": "%ID/g"},
      {"measurement": "tissue uptake at 6 h", "setting": "[1]; [6]", "result": 1.01, "unit": "%ID/g"},
      {"measurement": "tissue uptake at 24 h", "setting": "[1]; [6]", "result": 0.1, "unit": "%ID/g"},
      {"measurement": "tissue uptake at 48 h", "setting": "[1]; [6]", "result": 0.02, "unit": "%ID/g"},
      {"measurement": "tissue uptake", "setting": "[1]; [7]", "result": 2.39, "unit": "%ID/g"},
      {"measurement": "tissue uptake at 2 h", "setting": "[1]; [7]", "result": 5.61, "unit": "%ID/g"},
      {"measurement": "tissue uptake at 6 h", "setting": "[1]; [7]", "result": 5.34, "unit": "%ID/g"},
      {"measurement": "tissue uptake at 24 h", "setting": "[1]; [7]", "result": 0.87, "unit": "%ID/g"},
      {"measurement": "tissue uptake at 48 h", "setting": "[1]; [7]", "result": 0.36, "unit": "%ID/g"},
      {"measurement": "tissue uptake", "setting": "[1]; [8]", "result": 0.09, "unit": "%ID/g"},
      {"measurement": "tissue uptake at 2 h", "setting": "[1]; [8]", "result": 0.56, "unit": "%ID/g"},
      {"measurement": "tissue uptake at 6 h", "setting": "[1]; [8]", "result": 0.33, "unit": "%ID/g"},
      {"measurement": "tissue uptake", "setting": "[1]; [9]", "result": 0.54, "unit": "%ID/g"},
      {"measurement": "tissue uptake at 2 h", "setting": "[1]; [9]", "result": 1.26, "unit": "%ID/g"},
      {"measurement": "tissue uptake at 6 h", "setting": "[1]; [9]", "result": 0.97, "unit": "%ID/g"},
      {"measurement": "tissue uptake at 24 h", "setting": "[1]; [9]", "result": 0.18, "unit": "%ID/g"},
      {"measurement": "tissue uptake at 48 h", "setting": "[1]; [9]", "result": 0.06, "unit": "%ID/g"},
      {"measurement": "tissue uptake", "setting": "[1]; [10]", "result": 3.66, "unit": "%ID/g"},
      {"measurement": "tissue uptake at 2 h", "setting": "[1]; [10]", "result": 4.66, "unit": "%ID/g"},
      {"measurement": "tissue uptake at 6 h", "setting": "[1]; [10]", "result": 4.4, "unit": "%ID/g"},
      {"measurement": "tissue uptake at 24 h", "setting": "[1]; [10]", "result": 1.95, "unit": "%ID/g"},
      {"measurement": "tissue uptake at 48 h", "setting": "[1]; [10]", "result": 1.26, "unit": "%ID/g"},
      {"measurement": "tissue uptake", "setting": "[2]; Blood, tail vein, intraperitoneal MCF-7, mean, n = 5, read-out: Percent Injected Dose/Gram, blood", "result": 0.61, "unit": "%ID/g"},
      {"measurement": "tissue uptake at 2 h", "setting": "[2]; Blood, 2 hours, tail vein, intraperitoneal MCF-7, mean, n = 5, read-out: Percent Injected Dose/Gram, blood", "result": 2.07, "unit": "%ID/g"},
      {"measurement": "tissue uptake at 6 h", "setting": "[2]; Blood, 6 hours, tail vein, intraperitoneal MCF-7, mean, n = 5, read-out: Percent Injected Dose/Gram, blood", "result": 0.88, "unit": "%ID/g"},
      {"measurement": "tissue uptake", "setting": "[2]; Fat, tail vein, intraperitoneal MCF-7, mean, n = 5, read-out: Percent Injected Dose/Gram, fat", "result": 0.67, "unit": "%ID/g"},
      {"measurement": "tissue uptake at 2 h", "setting": "[2]; Fat, 2 hours, tail vein, intraperitoneal MCF-7, mean, n = 5, read-out: Percent Injected Dose/Gram, fat", "result": 3.1, "unit": "%ID/g"},
      {"measurement": "tissue uptake at 6 h", "setting": "[2]; Fat, 6 hours, tail vein, intraperitoneal MCF-7, mean, n = 5, read-out: Percent Injected Dose/Gram, fat", "result": 1.64, "unit": "%ID/g"},
      {"measurement": "tissue uptake at 24 h", "setting": "[2]; Fat, 24 hours, tail vein, intraperitoneal MCF-7, mean, n = 5, read-out: Percent Injected Dose/Gram, fat", "result": 0.12, "unit": "%ID/g"},
      {"measurement": "tissue uptake at 2 h", "setting": "[2]; [11]", "result": 2.08, "unit": "%ID/g"},
      {"measurement": "tissue uptake at 6 h", "setting": "[2]; [11]", "result": 0.78, "unit": "%ID/g"},
      {"measurement": "tissue uptake at 24 h", "setting": "[2]; [11]", "result": 0.13, "unit": "%ID/g"},
      {"measurement": "tissue uptake at 48 h", "setting": "[2]; [11]", "result": 0.03, "unit": "%ID/g"},
      {"measurement": "tissue uptake at 2 h", "setting": "[2]; [12]", "result": 8.26, "unit": "%ID/g"},
      {"measurement": "tissue uptake at 6 h", "setting": "[2]; [12]", "result": 4.08, "unit": "%ID/g"},
      {"measurement": "tissue uptake at 24 h", "setting": "[2]; [12]", "result": 1.14, "unit": "%ID/g"},
      {"measurement": "tissue uptake at 48 h", "setting": "[2]; [12]", "result": 0.44, "unit": "%ID/g"},
      {"measurement": "tissue uptake at 2 h", "setting": "[2]; [13]", "result": 0.69, "unit": "%ID/g"},
      {"measurement": "tissue uptake at 6 h", "setting": "[2]; [13]", "result": 0.31, "unit": "%ID/g"},
      {"measurement": "tissue uptake at 2 h", "setting": "[2]; [14]", "result": 1.72, "unit": "%ID/g"},
      {"measurement": "tissue uptake at 6 h", "setting": "[2]; [14]", "result": 0.86, "unit": "%ID/g"},
      {"measurement": "tissue uptake at 24 h", "setting": "[2]; [14]", "result": 0.16, "unit": "%ID/g"},
      {"measurement": "tissue uptake at 48 h", "setting": "[2]; [14]", "result": 0.06, "unit": "%ID/g"},
      {"measurement": "tissue uptake at 2 h", "setting": "[2]; [15]", "result": 2.33, "unit": "%ID/g"},
      {"measurement": "tissue uptake at 6 h", "setting": "[2]; [15]", "result": 1.6, "unit": "%ID/g"},
      {"measurement": "tissue uptake at 24 h", "setting": "[2]; [15]", "result": 1.07, "unit": "%ID/g"},
      {"measurement": "tissue uptake at 48 h", "setting": "[2]; [15]", "result": 0.76, "unit": "%ID/g"},
      {"measurement": "tissue uptake", "setting": "[2]; Uteri, tail vein, intraperitoneal MCF-7, mean, n = 5, read-out: Percent Injected Dose/Gram, uteri", "result": 3.95, "unit": "%ID/g"},
      {"measurement": "tissue uptake at 2 h", "setting": "[2]; Uteri, 2 hours, tail vein, intraperitoneal MCF-7, mean, n = 5, read-out: Percent Injected Dose/Gram, uteri", "result": 6.47, "unit": "%ID/g"},
      {"measurement": "tissue uptake at 6 h", "setting": "[2]; Uteri, 6 hours, tail vein, intraperitoneal MCF-7, mean, n = 5, read-out: Percent Injected Dose/Gram, uteri", "result": 4.43, "unit": "%ID/g"},
      {"measurement": "tissue uptake at 24 h", "setting": "[2]; Uteri, 24 hours, tail vein, intraperitoneal MCF-7, mean, n = 5, read-out: Percent Injected Dose/Gram, uteri", "result": 3.35, "unit": "%ID/g"},
      {"measurement": "tissue uptake at 48 h", "setting": "[2]; Uteri, 48 hours, tail vein, intraperitoneal MCF-7, mean, n = 5, read-out: Percent Injected Dose/Gram, uteri", "result": 1.62, "unit": "%ID/g"}
    ]}
  ]
}
